In article PMC6934184, “Selective DNA-PKcs inhibition extends the therapeutic index of localized radiotherapy and chemotherapy” (The Journal of Clinical Investigation, 2019):

Target: T1, CAMKK2 (CaMKK beta) (Homo sapiens, UniProt Q96RR4)
T1 construct: purchased Thermo Fisher Scientific (Life Technologies) SelectScreen
Assay: SelectScreen LanthaScreen
Type: binding
Settings: read-out: % displacement
In short: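 Percent values come from Thermo SelectScreen profiling of NU5455, combining activity and binding assays. CSF1R was run in Z'LYTE format at Km app ATP, and CAMK1 in Adapta format with ATP listed at 10.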

T1 sequence (Q96RR4 whole entry): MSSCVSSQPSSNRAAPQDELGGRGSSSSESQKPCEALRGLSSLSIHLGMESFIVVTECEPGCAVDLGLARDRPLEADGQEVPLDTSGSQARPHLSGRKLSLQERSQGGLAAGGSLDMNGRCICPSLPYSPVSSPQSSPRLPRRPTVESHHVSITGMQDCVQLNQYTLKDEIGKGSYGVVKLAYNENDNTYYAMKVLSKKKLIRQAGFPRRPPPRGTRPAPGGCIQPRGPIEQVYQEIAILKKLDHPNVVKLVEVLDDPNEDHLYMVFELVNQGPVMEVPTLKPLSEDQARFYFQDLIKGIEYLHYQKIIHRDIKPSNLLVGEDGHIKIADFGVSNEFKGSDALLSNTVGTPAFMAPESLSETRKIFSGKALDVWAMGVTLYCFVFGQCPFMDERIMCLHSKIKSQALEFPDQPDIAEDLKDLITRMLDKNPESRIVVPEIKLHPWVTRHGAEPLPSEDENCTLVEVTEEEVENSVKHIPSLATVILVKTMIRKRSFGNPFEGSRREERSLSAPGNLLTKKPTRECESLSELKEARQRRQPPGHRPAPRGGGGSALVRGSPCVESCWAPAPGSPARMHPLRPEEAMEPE

CN(C(=O)CN1CCOCC1)c1ccc2sc3c(-c4cccc5c(=O)cc(N6CC7CCC(C6)O7)oc45)cccc3c2c1 [NU5455] was tested, and the inhibition at 1 µM was 0.9%.
